pIC50: −log10 of the molar value.
Assays:
PI3K-alpha = PI3K-alpha (Homo sapiens, UniProt P42336); experiment: PI3K-alpha fluorescence polarization assay; details: read-out: IC50 PI3Kα
PI3K-gamma = PI3K-gamma (Homo sapiens, UniProt P48736); experiment: PI3K-gamma fluorescence polarization assay; details: read-out: IC50 PI3Kγ
Chain of PI3K-gamma (P48736 whole entry, species assumed): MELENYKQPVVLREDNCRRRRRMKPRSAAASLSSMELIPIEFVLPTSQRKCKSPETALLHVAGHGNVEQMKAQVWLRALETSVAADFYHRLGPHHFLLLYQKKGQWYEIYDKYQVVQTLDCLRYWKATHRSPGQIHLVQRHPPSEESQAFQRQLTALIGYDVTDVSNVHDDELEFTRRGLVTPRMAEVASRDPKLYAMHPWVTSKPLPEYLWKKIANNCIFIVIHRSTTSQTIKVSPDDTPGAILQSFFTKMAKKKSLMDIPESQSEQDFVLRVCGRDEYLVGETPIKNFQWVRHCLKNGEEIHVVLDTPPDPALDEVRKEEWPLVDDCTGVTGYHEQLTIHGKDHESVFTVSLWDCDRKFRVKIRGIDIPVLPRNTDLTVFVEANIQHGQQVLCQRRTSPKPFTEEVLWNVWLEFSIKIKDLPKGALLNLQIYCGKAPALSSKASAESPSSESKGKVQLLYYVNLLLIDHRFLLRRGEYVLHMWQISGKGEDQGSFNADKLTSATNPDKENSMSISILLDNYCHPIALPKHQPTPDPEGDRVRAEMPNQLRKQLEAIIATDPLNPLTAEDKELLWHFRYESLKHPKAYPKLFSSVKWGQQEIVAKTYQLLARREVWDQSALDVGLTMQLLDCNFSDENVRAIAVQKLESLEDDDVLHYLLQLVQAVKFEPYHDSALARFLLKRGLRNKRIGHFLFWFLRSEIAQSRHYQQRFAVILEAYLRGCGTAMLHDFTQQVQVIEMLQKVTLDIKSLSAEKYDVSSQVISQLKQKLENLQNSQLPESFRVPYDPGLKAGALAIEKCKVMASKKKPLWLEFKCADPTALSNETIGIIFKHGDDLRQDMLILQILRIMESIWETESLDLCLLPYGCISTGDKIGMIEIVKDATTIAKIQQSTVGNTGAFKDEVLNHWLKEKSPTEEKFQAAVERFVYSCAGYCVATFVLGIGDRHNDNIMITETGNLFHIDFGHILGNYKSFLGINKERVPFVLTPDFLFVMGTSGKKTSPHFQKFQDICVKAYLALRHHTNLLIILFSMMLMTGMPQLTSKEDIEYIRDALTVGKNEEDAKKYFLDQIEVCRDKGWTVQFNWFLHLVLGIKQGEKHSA

Chain of PI3K-alpha (P42336 whole entry, species assumed): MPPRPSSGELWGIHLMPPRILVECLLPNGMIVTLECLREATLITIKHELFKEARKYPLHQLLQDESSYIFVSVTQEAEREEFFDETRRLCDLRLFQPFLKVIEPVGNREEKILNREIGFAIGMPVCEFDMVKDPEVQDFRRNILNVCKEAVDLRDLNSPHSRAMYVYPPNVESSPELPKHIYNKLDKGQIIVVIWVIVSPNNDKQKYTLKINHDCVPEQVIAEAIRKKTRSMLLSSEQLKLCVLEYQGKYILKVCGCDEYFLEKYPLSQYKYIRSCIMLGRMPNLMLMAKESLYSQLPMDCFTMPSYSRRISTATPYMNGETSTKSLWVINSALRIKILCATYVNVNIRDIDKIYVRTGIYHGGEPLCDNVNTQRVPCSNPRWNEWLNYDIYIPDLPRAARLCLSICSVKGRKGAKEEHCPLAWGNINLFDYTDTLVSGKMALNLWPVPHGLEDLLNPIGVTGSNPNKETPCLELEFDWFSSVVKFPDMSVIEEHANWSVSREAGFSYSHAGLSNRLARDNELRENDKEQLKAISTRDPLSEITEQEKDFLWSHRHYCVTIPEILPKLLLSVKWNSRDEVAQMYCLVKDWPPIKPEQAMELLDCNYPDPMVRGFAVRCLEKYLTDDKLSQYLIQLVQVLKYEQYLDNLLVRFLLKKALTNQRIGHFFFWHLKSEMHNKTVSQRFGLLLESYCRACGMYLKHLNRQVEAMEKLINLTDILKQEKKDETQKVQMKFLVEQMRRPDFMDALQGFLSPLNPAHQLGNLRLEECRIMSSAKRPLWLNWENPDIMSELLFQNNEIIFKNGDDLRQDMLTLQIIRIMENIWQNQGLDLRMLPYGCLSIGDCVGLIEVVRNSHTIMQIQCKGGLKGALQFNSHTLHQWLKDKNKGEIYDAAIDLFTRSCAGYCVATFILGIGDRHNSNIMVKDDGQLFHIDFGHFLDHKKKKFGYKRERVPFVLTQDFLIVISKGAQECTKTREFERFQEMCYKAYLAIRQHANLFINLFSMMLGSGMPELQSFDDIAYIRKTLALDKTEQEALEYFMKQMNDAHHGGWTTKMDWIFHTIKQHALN
Chain of PI3K-alpha (P27986 whole entry partner, species assumed): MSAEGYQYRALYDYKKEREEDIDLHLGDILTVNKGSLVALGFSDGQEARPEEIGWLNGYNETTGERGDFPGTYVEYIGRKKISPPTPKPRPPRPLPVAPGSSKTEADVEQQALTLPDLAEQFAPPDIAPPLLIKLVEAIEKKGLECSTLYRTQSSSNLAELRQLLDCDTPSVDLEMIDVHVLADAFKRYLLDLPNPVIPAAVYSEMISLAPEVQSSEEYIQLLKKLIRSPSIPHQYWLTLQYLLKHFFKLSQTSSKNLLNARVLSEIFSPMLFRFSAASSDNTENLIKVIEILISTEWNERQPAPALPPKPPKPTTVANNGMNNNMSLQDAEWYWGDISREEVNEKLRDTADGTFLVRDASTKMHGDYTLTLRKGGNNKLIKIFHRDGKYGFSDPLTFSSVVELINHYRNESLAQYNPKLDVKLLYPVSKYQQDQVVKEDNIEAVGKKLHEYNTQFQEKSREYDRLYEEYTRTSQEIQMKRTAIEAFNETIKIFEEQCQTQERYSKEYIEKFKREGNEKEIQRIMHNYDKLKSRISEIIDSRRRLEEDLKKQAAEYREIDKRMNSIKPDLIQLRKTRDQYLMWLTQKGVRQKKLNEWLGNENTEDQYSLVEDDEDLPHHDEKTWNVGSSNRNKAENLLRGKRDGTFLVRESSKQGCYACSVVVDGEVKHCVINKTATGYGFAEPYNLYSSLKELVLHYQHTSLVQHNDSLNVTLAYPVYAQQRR

Row | SMILES | pIC50 (PI3K-alpha) | pIC50 (PI3K-gamma)
1 | CC(C)N1CCCN(c2nc(-c3ccc(NC(=O)Nc4ccc(C(=O)N(C)CCN(C)C)cc4)cc3)nc(N3CCOC[C@@H]3C)n2)CC1 [Example 854, N-[2-(dimethylamino)ethyl]-N-methyl-4-{[(4-{4-[(3S)-3-methylmorpholin-4-yl]-6-[4-(propan-2-yl)-1,4-diazepan-1-yl]-1,3,5-triazin-2-yl}phenyl)carbamoyl]amino}benzamide] | 8.05 | 6.79
2 | CC(=O)NC1CCN(C(=O)c2ccc(NC(=O)Nc3ccc(-c4nc(N5CCOC[C@@H]5C)nc(N5CCOC[C@@H]5C)n4)cc3)cc2)CC1 [Example 837, N-{1-[(4-{[(4-{4,6-bis[(3S)-3-methylmorpholin-4-yl]-1,3,5-triazin-2-yl}phenyl)carbamoyl]amino}phenyl)carbonyl]piperidin-4-yl}acetamide] | 7.92 | 7.12
3 | C[C@H]1COCCN1c1nc(-c2ccc(NC(=O)Nc3ccc(C(=O)N4CCC(C#N)CC4)cc3)cc2)nc(N2CCOC[C@@H]2C)n1 [Example 840, 1-(4-{4,6-bis[(3S)-3-methylmorpholin-4-yl]-1,3,5-triazin-2-yl}phenyl)-3-{4-[(4-cyanopiperidin-1-yl)carbonyl]phenyl}urea] | 8.29 | 7.82
4 | Cc1ccc(NC(=O)Nc2ccc(-c3nc(NC4CN(C(=O)OC(C)(C)C)C4)nc(N4CCOCC4)n3)cc2)cc1 [Example 16, tert-butyl 3-{[4-(4-{[(4-methylphenyl)carbamoyl]amino}phenyl)-6-morpholin-4-yl-1,3,5-triazin-2-yl]amino}azetidine-1-carboxylate] |  | < 4.00
5 | CC(C)NC(=O)N1CC(Oc2nc(-c3ccc(NC(=O)Nc4ccncc4)cc3)nc(N3CCOCC3)n2)C1 [Example 836, N-(1-methylethyl)-3-[(4-morpholin-4-yl-6-{4-[(pyridin-4-ylcarbamoyl)amino]phenyl}-1,3,5-triazin-2-yl)oxy]azetidine-1-carboxamide] | 8.30 | 7.76
6 | COc1ccc(NC(=O)Nc2ccc(-c3nc(N4CCOCC4)nc(N4CCOCC4)n3)cc2)c(OC)c1 [Example 7, 1-(2,4-dimethoxyphenyl)-3-[4-(4,6-dimorpholin-4-yl-1,3,5-triazin-2-yl)phenyl]-urea] |  | < 4.00
7 | CN1CCN(C(=O)c2ccc(NC(=O)Nc3ccc(-c4nc(C5CCOCC5)nc(N5CCOCC5)n4)cc3)cc2)CC1(C)C [Example 865, 1-{4-[4-(morpholin-4-yl)-6-(tetrahydro-2H-pyran-4-yl)-1,3,5-triazin-2-yl]phenyl}-3-{4-[(3,3,4-trimethylpiperazin-1-yl)carbonyl]phenyl}urea] | 8.61 | 7.92
8 | CC(C)N1CCCN(C(=O)c2ccc(NC(=O)Nc3ccc(-c4nc(N5CCOC[C@@H]5C)nc(N5CCOC[C@@H]5C)n4)cc3)cc2)CC1 [Example 838, 1-(4-{4,6-bis[(3S)-3-methylmorpholin-4-yl]-1,3,5-triazin-2-yl}phenyl)-3-(4-{[4-(1-methylethyl)-1,4-diazepan-1-yl]carbonyl}phenyl)urea] | 8.31 | 7.61
9 | O=C(Nc1ccncc1)Nc1ccc(-c2nc(OC3CNC3)nc(N3CCOCC3)n2)cc1 [Example 835, 1-{4-[4-(azetidin-3-yloxy)-6-morpholin-4-yl-1,3,5-triazin-2-yl]phenyl}-3-pyridin-4-ylurea] | 8.38 | 7.73
10 | CN1CCN(c2ccc(NC(=O)Nc3ccc(-c4nc(-c5ccc(NC(=O)NC6CC6)cc5)nc(N5CC6CCC(C5)O6)n4)cc3)cc2)CC1 [Example 146, 1-cyclopropyl-3-(4-{4-[4-({[4-(4-methylpiperazin-1-yl)phenyl]carbamoyl}amino)phenyl]-6-(8-oxa-3-azabicyclo[3.2.1]oct-3-yl)-1,3,5-triazin-2-yl}phenyl)urea] |  | < 4.00

The remaining lines, values ahead:

Row | pIC50 (PI3K-alpha) | pIC50 (PI3K-gamma) | SMILES
11 | 7.75 | 6.62 | CC(C)N1CCCN(c2nc(-c3ccc(NC(=O)Nc4ccc(C(=O)N5CCOCC5)cc4)cc3)nc(N3CCOCC3)n2)CC1 [Example 859, 1-[4-(morpholin-4-ylcarbonyl)phenyl]-3-(4-{4-(morpholin-4-yl)-6-[4-(propan-2-yl)-1,4-diazepan-1-yl]-1,3,5-triazin-2-yl}phenyl)urea]
12 | 9.07 | 8.25 | C[C@@H]1CN(C(=O)c2ccc(NC(=O)Nc3ccc(-c4nc(N5CCOCC5)nc(N5CCOCC5)n4)cc3)cc2)CCN1C1CCC1 [Example 851, 1-(4-{[(3R)-4-cyclobutyl-3-methylpiperazin-1-yl]carbonyl}phenyl)-3-{4-[4,6-di(morpholin-4-yl)-1,3,5-triazin-2-yl]phenyl}urea]
13 | 8.67 |  | CN1CCN(C(=O)c2ccc(NC(=O)Nc3ccc(-c4nc(C5CCOCC5)nc(N5CCOCC5)n4)cc3)cc2)CC1 [Example 830, 1-{4-[(4-methylpiperazin-1-yl)carbonyl]phenyl}-3-{4-[4-morpholin-4-yl-6-(tetrahydro-2H-pyran-4-yl)-1,3,5-triazin-2-yl]phenyl}urea]
14 | 9.40 | 8.15 | C[C@H]1CN(C(=O)c2ccc(NC(=O)Nc3ccc(-c4nc(C5CCOCC5)nc(N5CCOCC5)n4)cc3)cc2)CCN1 [Example 867, 1-(4-{[(3S)-3-methylpiperazin-1-yl]carbonyl}phenyl)-3-{4-[4-(morpholin-4-yl)-6-(tetrahydro-2H-pyran-4-yl)-1,3,5-triazin-2-yl]phenyl}urea]
15 | 8.68 | 8.10 | C[C@H]1CN(C(=O)c2ccc(NC(=O)Nc3ccc(-c4nc(N5CCOCC5)nc(N5CCOCC5)n4)cc3)cc2)CCN1C1CCC1 [Example 863, 1-(4-{[(3S)-4-cyclobutyl-3-methylpiperazin-1-yl]carbonyl}phenyl)-3-{4-[4,6-di(morpholin-4-yl)-1,3,5-triazin-2-yl]phenyl}urea]
16 | 9.40 | 8.26 | CC(C)N1CCN(C(=O)c2ccc(NC(=O)Nc3ccc(-c4nc(N5CCOCC5)nc(N5CCOCC5)n4)cc3)cc2)C[C@H]1C [Example 852, 1-{4-[4,6-di(morpholin-4-yl)-1,3,5-triazin-2-yl]phenyl}-3-(4-{[(3R)-3-methyl-4-(propan-2-yl)piperazin-1-yl]carbonyl}phenyl)urea]
17 | 9.02 |  | CN(C)[C@@H]1CCN(C(=O)c2ccc(NC(=O)Nc3ccc(-c4nc(N5CCOCC5)nc(N5CCOCC5)n4)cc3)cc2)C1 [Example 831, 1-(4-{[(3R)-3-(dimethylamino)pyrrolidin-1-yl]carbonyl}phenyl)-3-[4-(4,6-dimorpholin-4-yl-1,3,5-triazin-2-yl)phenyl]urea]
18 | 9.52 | 8.30 | C[C@H]1CN(C(=O)c2ccc(NC(=O)Nc3ccc(-c4nc(N5CCOCC5)nc(N5CCOCC5)n4)cc3)cc2)CCN1 [Example 853, 1-{4-[4,6-di(morpholin-4-yl)-1,3,5-triazin-2-yl]phenyl}-3-(4-{[(3S)-3-methylpiperazin-1-yl]carbonyl}phenyl)urea]
19 |  | 6.97 | C[C@H]1COCCN1c1nc(-c2ccc(NC(=O)Nc3ccc(C(=O)N4CC[C@H](N(C)C)C4)cc3)cc2)nc(N2CCOC[C@@H]2C)n1 [Example 841, 1-(4-{4,6-bis[(3S)-3-methylmorpholin-4-yl]-1,3,5-triazin-2-yl}phenyl)-3-(4-{[(3S)-3-(dimethylamino)pyrrolidin-1-yl]carbonyl}phenyl)urea]

— patent US8748421B2, “Triazine compounds as P13 kinase and MTOR inhibitors” (Wyeth LLC, priority 2009, dated 2014)
